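Five concentrations, 48 hours, 96-well plates. Abbreviation: GI50, concentration required for 50% inhibition of growth. TGI is the concentration that stops growth completely.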
Assays:
Assay in all cases: DTP human tumour cell line panel, 48 h; in the data active means GI50 below about 0.43 µM; inactive means the rest
UACC-257 melanoma = tested on: UACC-257 melanoma
SF-268 CNS = tested on: SF-268 CNS
SK-MEL-28 melanoma = tested on: SK-MEL-28 melanoma
CAKI-1 renal = tested on: CAKI-1 renal
OVCAR-3 ovarian = tested on: OVCAR-3 ovarian
RPMI-8226 leukemia = tested on: RPMI-8226 leukemia
MALME-3M melanoma = tested on: MALME-3M melanoma
NCI/ADR-RES ovarian = tested on: NCI/ADR-RES ovarian
OVCAR-5 ovarian = tested on: OVCAR-5 ovarian
SK-MEL-2 melanoma = tested on: SK-MEL-2 melanoma
CCRF-CEM leukemia = tested on: CCRF-CEM leukemia
M14 melanoma = tested on: M14 melanoma
LOX IMVI melanoma = tested on: LOX IMVI melanoma
MCF7 breast = tested on: MCF7 breast
KM12 colon = tested on: KM12 colon
EKVX NSCLC = tested on: EKVX NSCLC
BT-549 breast = tested on: BT-549 breast
DU-145 prostate = tested on: DU-145 prostate
IGROV1 ovarian = tested on: IGROV1 ovarian
UACC-62 melanoma = tested on: UACC-62 melanoma
ACHN renal = tested on: ACHN renal
HOP-92 NSCLC = tested on: HOP-92 NSCLC
A549 NSCLC = tested on: A549 NSCLC
U251 CNS = tested on: U251 CNS
MDA-MB-435 = tested on: MDA-MB-435
NCI-H522 lung = tested on: NCI-H522 lung
COLO 205 colon = tested on: COLO 205 colon
SK-OV-3 ovarian = tested on: SK-OV-3 ovarian
UO-31 renal = tested on: UO-31 renal
HT29 colon = tested on: HT29 colon
OVCAR-8 ovarian = tested on: OVCAR-8 ovarian
SW-620 colon = tested on: SW-620 colon
786-0 renal = tested on: 786-0 renal
NCI-H23 lung = tested on: NCI-H23 lung
SR leukemia = tested on: SR leukemia
A498 renal = tested on: A498 renal
HS 578T breast = tested on: HS 578T breast
SK-MEL-5 melanoma = tested on: SK-MEL-5 melanoma
OVCAR-4 ovarian = tested on: OVCAR-4 ovarian
T-47D breast = tested on: T-47D breast
MOLT-4 leukemia = tested on: MOLT-4 leukemia
HOP-62 NSCLC = tested on: HOP-62 NSCLC
TK-10 renal = tested on: TK-10 renal
PC-3 prostate = tested on: PC-3 prostate
MDA-MB-231 breast = tested on: MDA-MB-231 breast
SNB-19 CNS = tested on: SNB-19 CNS
SN12C renal = tested on: SN12C renal
HCC-2998 colon = tested on: HCC-2998 colon
NCI-H460 lung = tested on: NCI-H460 lung
HCT-116 colon = tested on: HCT-116 colon
K-562 leukemia = tested on: K-562 leukemia
HCT-15 colon = tested on: HCT-15 colon
NCI-H226 lung = tested on: NCI-H226 lung
SNB-75 CNS = tested on: SNB-75 CNS
SF-539 CNS = tested on: SF-539 CNS
RXF 393 renal = tested on: RXF 393 renal
SF-295 CNS = tested on: SF-295 CNS

COc1ccc2nc(NC(=O)COc3cc(/C=C\c4cc(OC)c(OC)c(OC)c4)ccc3OC)sc2c1
6.44 µM: TGI (MDA-MB-435)
7.46 µM: TGI (NCI/ADR-RES ovarian)
38.4 µM: TGI (SK-MEL-5 melanoma)
> 100 µM: TGI (UACC-257 melanoma) | TGI (SF-268 CNS) | TGI (SK-MEL-28 melanoma) | TGI (CAKI-1 renal) | TGI (RPMI-8226 leukemia) | TGI (MALME-3M melanoma) | TGI (OVCAR-5 ovarian) | TGI (SK-MEL-2 melanoma) | TGI (CCRF-CEM leukemia) | TGI (M14 melanoma) | TGI (LOX IMVI melanoma) | TGI (MCF7 breast) | TGI (EKVX NSCLC) | TGI (BT-549 breast) | TGI (IGROV1 ovarian) | TGI (UACC-62 melanoma) | TGI (ACHN renal) | TGI (HOP-92 NSCLC) | TGI (A549 NSCLC) | TGI (U251 CNS) | TGI (NCI-H522 lung) | TGI (COLO 205 colon) | TGI (SK-OV-3 ovarian) | TGI (UO-31 renal) | TGI (HT29 colon) | TGI (OVCAR-8 ovarian) | TGI (SW-620 colon) | TGI (786-0 renal) | TGI (NCI-H23 lung) | TGI (SR leukemia) | TGI (A498 renal) | TGI (HS 578T breast) | TGI (OVCAR-4 ovarian) | TGI (T-47D breast) | TGI (MOLT-4 leukemia) | TGI (HOP-62 NSCLC) | TGI (TK-10 renal) | TGI (PC-3 prostate) | TGI (MDA-MB-231 breast) | TGI (SNB-19 CNS) | TGI (SN12C renal) | TGI (HCC-2998 colon) | TGI (NCI-H460 lung) | TGI (HCT-116 colon) | TGI (K-562 leukemia) | TGI (HCT-15 colon) | TGI (NCI-H226 lung)
5.02 µM: TGI (OVCAR-3 ovarian)
inactive: GI50 (UACC-257 melanoma) 63.9 µM | GI50 (SF-268 CNS) 4.31 µM | GI50 (SK-MEL-28 melanoma) 4.41 µM | GI50 (CAKI-1 renal) 3.2 µM | GI50 (OVCAR-3 ovarian) 2170 nM | GI50 (RPMI-8226 leukemia) 5.43 µM | GI50 (MALME-3M melanoma) > 100 µM | GI50 (NCI/ADR-RES ovarian) 2300 nM | GI50 (OVCAR-5 ovarian) 5.89 µM | GI50 (SK-MEL-2 melanoma) 4.07 µM | GI50 (CCRF-CEM leukemia) 3.87 µM | GI50 (M14 melanoma) 4.33 µM | GI50 (LOX IMVI melanoma) 4.17 µM | GI50 (MCF7 breast) 2880 nM | GI50 (KM12 colon) 3.12 µM | GI50 (EKVX NSCLC) 5.11 µM | GI50 (BT-549 breast) 21.2 µM | GI50 (DU-145 prostate) 2040 nM | GI50 (IGROV1 ovarian) 7 µM | GI50 (UACC-62 melanoma) 5.93 µM | GI50 (ACHN renal) 7.77 µM | GI50 (HOP-92 NSCLC) 6.28 µM | GI50 (A549 NSCLC) 5.18 µM | GI50 (U251 CNS) 4 µM | GI50 (MDA-MB-435) 1160 nM | GI50 (NCI-H522 lung) 3.09 µM | GI50 (COLO 205 colon) 3.89 µM | GI50 (SK-OV-3 ovarian) 4.69 µM | GI50 (UO-31 renal) 4.31 µM | GI50 (HT29 colon) 3.34 µM | GI50 (OVCAR-8 ovarian) 5.28 µM | GI50 (SW-620 colon) 5.1 µM | GI50 (786-0 renal) 7.52 µM | GI50 (NCI-H23 lung) 3.91 µM | GI50 (SR leukemia) 3.69 µM | GI50 (A498 renal) 3.5 µM | GI50 (HS 578T breast) 4.15 µM | GI50 (SK-MEL-5 melanoma) 2680 nM | GI50 (OVCAR-4 ovarian) 5.31 µM | GI50 (T-47D breast) 4.03 µM | GI50 (MOLT-4 leukemia) 3.87 µM | GI50 (HOP-62 NSCLC) 23.3 µM | GI50 (TK-10 renal) 7.54 µM | GI50 (PC-3 prostate) 4.45 µM | GI50 (MDA-MB-231 breast) 5.4 µM | GI50 (SNB-19 CNS) 6.3 µM | GI50 (SN12C renal) 5.75 µM | GI50 (HCC-2998 colon) 7.35 µM | GI50 (NCI-H460 lung) 3.73 µM | GI50 (HCT-116 colon) 3.7 µM | GI50 (K-562 leukemia) 3.6 µM | GI50 (HCT-15 colon) 2890 nM | GI50 (NCI-H226 lung) 4.51 µM
21.2 µM: TGI (KM12 colon)
6.96 µM: TGI (DU-145 prostate)

C=C1C[C@H](O)[C@H]2C(C[Se]c3ccccc3)C(=O)O[C@@H]2[C@H]2[C@H](C)C(O)C[C@@H]12 (stereo partly specified)
98.4 µM: TGI (BT-549 breast)
64.1 µM: TGI (UACC-62 melanoma)
56.4 µM: TGI (HCT-116 colon)
93.1 µM: TGI (IGROV1 ovarian)
65 µM: TGI (SN12C renal)
98.6 µM: TGI (OVCAR-3 ovarian)
76.3 µM: TGI (ACHN renal)
94.8 µM: TGI (SW-620 colon)
38.1 µM: TGI (NCI-H522 lung) | TGI (MDA-MB-231 breast)
50.2 µM: TGI (RXF 393 renal)
30.8 µM: TGI (U251 CNS)
40.7 µM: TGI (NCI-H23 lung)
98 µM: TGI (RPMI-8226 leukemia)
33.9 µM: TGI (HCT-15 colon)
51.6 µM: TGI (NCI/ADR-RES ovarian)
99.3 µM: TGI (786-0 renal)
55 µM: TGI (OVCAR-5 ovarian)
63.7 µM: TGI (UO-31 renal)
51.4 µM: TGI (LOX IMVI melanoma)
83.9 µM: TGI (NCI-H226 lung)
> 100 µM: TGI (UACC-257 melanoma) | TGI (SF-268 CNS) | TGI (SK-MEL-28 melanoma) | TGI (CAKI-1 renal) | TGI (MALME-3M melanoma) | TGI (SK-MEL-2 melanoma) | TGI (CCRF-CEM leukemia) | TGI (M14 melanoma) | TGI (MCF7 breast) | TGI (KM12 colon) | TGI (EKVX NSCLC) | TGI (DU-145 prostate) | TGI (SNB-75 CNS) | TGI (HOP-92 NSCLC) | TGI (A549 NSCLC) | TGI (MDA-MB-435) | TGI (COLO 205 colon) | TGI (SF-539 CNS) | TGI (SK-OV-3 ovarian) | TGI (HT29 colon) | TGI (OVCAR-8 ovarian) | TGI (SR leukemia) | TGI (HS 578T breast) | TGI (SK-MEL-5 melanoma) | TGI (OVCAR-4 ovarian) | TGI (T-47D breast) | TGI (MOLT-4 leukemia) | TGI (HOP-62 NSCLC) | TGI (TK-10 renal) | TGI (PC-3 prostate) | TGI (SNB-19 CNS) | TGI (SF-295 CNS) | TGI (NCI-H460 lung) | TGI (K-562 leukemia)
